The structures appear in SMILES notation. ≈ marks a conversion by molar mass, not a printed value. Calls of active or inactive are those of the source. The calls are words filed in the database; no cut-off is given here.

In assay [1] the test system is Porphyromonas gingivalis. In words: Competitive inhibition of Porphyromonas gingivalis recombinant SerB653 phosphatase expressed in Escherichia coli BL21 using phosphoserine as substrate by Lineweaver-Burk plot analysis.
In assay [2] the test system is Porphyromonas gingivalis. Kind of assay: Inhibition of Porphyromonas gingivalis recombinant SerB653 phosphatase expressed in Escherichia coli BL21 using phosphoserine as substrate at 50 uM after 1 hr by malachite green colorimetric assay.
Assay [3] concerns Porphyromonas gingivalis. In words: Antibacterial activity against Porphyromonas gingivalis ATCC 33277 after 2 hrs by broth microdilution method. It is filed as functional. The conditions noted are these: ATCC 33277, 2 h.
Assay [4] in a line: Inhibition of Porphyromonas gingivalis recombinant SerB653 phosphatase expressed in Escherichia coli BL21 using phosphoserine as substrate after 1 hr by malachite green colorimetric assay.
Assay [5] is described as follows: Inhibition of Porphyromonas gingivalis recombinant SerB653 phosphatase expressed in Escherichia coli BL21 using phosphoserine as substrate measured every 10 secs by malachite green colorimetric assay.

For `O=C(c1c(Nc2cc(F)cc(F)c2)[nH]c2c(Cl)ccc([N+](=O)[O-])c2c1=O)C1CC1`, the inhibition result in the assay on Porphyromonas gingivalis [1] is “Active”. For the same molecule, the inhibition in the assay with Porphyromonas gingivalis [2] came out at 96.2%. In the assay with Porphyromonas gingivalis [3], this molecule registered an MIC of 0.006 µg/mL (≈ 0.0143 µM). The IC50 in assay [4] came out at 2800 nM. Further, the Ki in assay [5] turned out to be 1000 nM.

As for `CCC(=O)c1c(Nc2cccc(Cl)c2Cl)[nH]c2c(Cl)ccc([N+](=O)[O-])c2c1=O`, the inhibition with Porphyromonas gingivalis [2] was 97.1%. In the assay on Porphyromonas gingivalis [3], this molecule had an MIC of 0.05 µg/mL (≈ 0.113 µM). Also, the IC50 in assay [4] is 5500 nM. Besides, the inhibition constant (Ki) in assay [5] worked out at 2000 nM.

The values above are taken from ChEMBL document CHEMBL2010789, “Identification of 3-acyl-2-phenylamino-1,4-dihydroquinolin-4-one derivatives as inhibitors of the phosphatase SerB653 in Porphyromonas gingivalis, implicated in periodontitis” (Bioorg Med Chem Lett, 2012).
